Assay results: US20230002359A1, “PESTICIDALLY ACTIVE FUSED BICYCLIC HETEROAROMATIC COMPOUNDS” (priority 2019, published 2023)

Tests used:
Format in all cases: in vivo
[1] = system: Diabrotica Balteata (Corn Root Worm); experiment: Example B1: Diabrotica balteata (corn root worm), maize sprouts sprayed, L2 larvae; settings: 96 h, application rate of 200 ppm, 4 days after infestation, L2 larvae, read-out: control in at least one of the two categories (mortality or growth inhibition)
Procedure, shortened: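 Spray test: maize sprouts on agar, aqueous dilutions of 10′000 ppm DMSO stock; after drying, 6–10 L2 larvae/well. Read-out at 4 d post-infestation: mortality and growth inhibition vs untreated.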

[2] = system: Chilo suppressalis (Striped Rice Stemborer); experiment: Example B3: Chilo suppressalis (striped rice stemborer), artificial diet, L2 larvae; settings: 144 h, application rate of 200 ppm, 6 days after infestation, L2 larvae, read-out: control in at least one of the three categories (mortality, anti-feedant effect, or growth inhibition)
Procedure, shortened: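 Artificial diet treated with aqueous dilutions of DMSO stocks (10'000 ppm stock), dried, then infested with 6-8 L2 larvae per well. Mortality, anti-feeding and growth inhibition scored against untreated samples 6 days after infestation. Control counted when any category exceeds untreated.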

[3] = system: Plutella xylostella (Diamond Back Moth); experiment: Example B4: Plutella xylostella (diamond back moth), artificial diet, eggs, 24-well; settings: 192 h, application rate of 200 ppm, 8 days after infestation, eggs, read-out: control in at least one of the two categories (mortality or growth inhibition)
Procedure: 24-well microtiter plates with artificial diet were treated with aqueous test solutions prepared from 10′000 ppm DMSO stock solutions by pipetting. After drying, Plutella eggs were pipetted through a plastic stencil onto a gel blotting paper and the plate was closed with it. The samples were assessed for mortality and growth inhibition in comparison to untreated samples 8 days after infestation.

[4] = system: Spodoptera littoralis (Egyptian Cotton Leaf Worm); experiment: Example B7: Spodoptera littoralis (Egyptian cotton leaf worm), cotton leaf discs sprayed, L1 larvae; settings: foliar, 72 h, application rate of 200 ppm, 3 days after infestation, L1 larvae, read-out: control in at least one of the three categories (mortality, anti-feedant effect, or growth inhibition)
Procedure, shortened: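 Read-out: mortality, feeding deterrence and growth inhibition, assessed 3 days after infestation relative to untreated samples. Sprayed, dried cotton leaf discs on agar each received five first-instar (L1) larvae; sprays were aqueous solutions prepared from 10′000 ppm DMSO stocks.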

CC(c1nccnc1-c1ncccn1)N(CC1CC1)c1ncnc2c(C(F)(F)F)cc(Cl)cc12 (stereo not shown) [P.131, 6-chloro-N-(cyclopropylmethyl)-N-[1-(3-pyrimidin-2-ylpyrazin-2-yl)ethyl]-8-(trifluoromethyl)quinazolin-4-amine]
≥ 80%: percent control (mortality or growth inhibition) at 200 ppm [1] | percent control (mortality, anti-feedant effect or growth inhibition) at 200 ppm [2] | percent control (mortality or growth inhibition) at 200 ppm [3] | percent control (mortality, anti-feedant effect or growth inhibition) at 200 ppm [4]

CC(Nc1ncnc2c(Cl)cc(Br)cc12)c1ncnn1-c1ncccn1 (stereo not shown) [P.159, 6-bromo-8-chloro-N-[1-(2-pyrimidin-2-yl-1,2,4-triazol-3-yl)ethyl]quinazolin-4-amine]
≥ 80%: percent control (mortality or growth inhibition) at 200 ppm [1] | percent control (mortality, anti-feedant effect or growth inhibition) at 200 ppm [2] | percent control (mortality or growth inhibition) at 200 ppm [3] | percent control (mortality, anti-feedant effect or growth inhibition) at 200 ppm [4]

C[C@H](Nc1ncnc2c(I)cc(C(F)(F)F)cc12)c1nccnc1-c1ccc(C#N)cn1 [P.161, 6-[3-[(1S)-1-[[8-iodo-6-(trifluoromethyl)quinazolin-4-yl]amino]ethyl]pyrazin-2-yl]pyridine-3-carbonitrile]
≥ 80%: percent control (mortality or growth inhibition) at 200 ppm [1] | percent control (mortality, anti-feedant effect or growth inhibition) at 200 ppm [2] | percent control (mortality or growth inhibition) at 200 ppm [3] | percent control (mortality, anti-feedant effect or growth inhibition) at 200 ppm [4]

C[C@@H](c1ncnn1-c1ccc(C#N)cn1)N(C)c1ncnc2c(C(F)(F)F)cc(C(F)(F)C3CC3)cc12 [P.163, 6-[5-[(1S)-1-[[6-[cyclopropyl(difluoro)meth-yl]-8-(trifluoromethyl)quinazolin-4-yl]-methyl-amino]ethyl]-1,2,4-triazol-1-yl]pyridine-3-carbonitrile]
≥ 80%: percent control (mortality or growth inhibition) at 200 ppm [1] | percent control (mortality, anti-feedant effect or growth inhibition) at 200 ppm [2] | percent control (mortality or growth inhibition) at 200 ppm [3] | percent control (mortality, anti-feedant effect or growth inhibition) at 200 ppm [4]

CC(Nc1ncnc2c(Br)cc(Cl)cc12)c1nccnc1-n1nccn1 (stereo not shown) [P.173, 8-bromo-6-chloro-N-[1-[3-(triazol-2-yl)pyrazin-2-yl]ethyl]quinazolin-4-amine]
≥ 80%: percent control (mortality or growth inhibition) at 200 ppm [1] | percent control (mortality, anti-feedant effect or growth inhibition) at 200 ppm [2] | percent control (mortality or growth inhibition) at 200 ppm [3] | percent control (mortality, anti-feedant effect or growth inhibition) at 200 ppm [4]

CC(c1nccnc1-n1nccn1)N(C)c1ncnc2c(Br)cc(Cl)cc12 (stereo not shown) [P.174, 8-bromo-6-chloro-N-methyl-N-[1-[3-(triazol-2-yl)pyrazin-2-yl]ethyl]quinazolin-4-amine]
≥ 80%: percent control (mortality or growth inhibition) at 200 ppm [1] | percent control (mortality, anti-feedant effect or growth inhibition) at 200 ppm [2] | percent control (mortality or growth inhibition) at 200 ppm [3] | percent control (mortality, anti-feedant effect or growth inhibition) at 200 ppm [4]

C[C@@H](c1ncnn1-c1ncccn1)N(C)c1c(F)cnc2c(C(F)(F)F)cc(C(F)(F)F)cc12 [P.176, 3-fluoro-N-methyl-N-[(1S)-1-(2-pyrimidin-2-yl-1,2,4-triazol-3-yl)ethyl]-6,8-bis(trifluoromethyl)quinolin-4-amine]
≥ 80%: percent control (mortality or growth inhibition) at 200 ppm [1] | percent control (mortality, anti-feedant effect or growth inhibition) at 200 ppm [2] | percent control (mortality or growth inhibition) at 200 ppm [3] | percent control (mortality, anti-feedant effect or growth inhibition) at 200 ppm [4]

CC(Nc1ncnc2c(Cl)cc(Br)cc12)c1nccnc1-c1ncccn1 (stereo not shown) [P.178, 6-bromo-8-chloro-N-[1-(3-pyrimidin-2-ylpyrazin-2-yl)ethyl]quinazolin-4-amine]
≥ 80%: percent control (mortality or growth inhibition) at 200 ppm [1] | percent control (mortality, anti-feedant effect or growth inhibition) at 200 ppm [2] | percent control (mortality or growth inhibition) at 200 ppm [3] | percent control (mortality, anti-feedant effect or growth inhibition) at 200 ppm [4]

CC(c1ncnn1-c1ccc(F)cn1)N(C)c1ncnc2c(Br)cc(C(F)(F)F)cc12 (stereo not shown) [P.185, 8-bromo-N-[1-[2-(5-fluoro-2-pyridyl)-1,2,4-triazol-3-yl]ethyl]-N-methyl-6-(trifluoromethyl)quinazolin-4-amine]
≥ 80%: percent control (mortality or growth inhibition) at 200 ppm [1] | percent control (mortality, anti-feedant effect or growth inhibition) at 200 ppm [2] | percent control (mortality or growth inhibition) at 200 ppm [3] | percent control (mortality, anti-feedant effect or growth inhibition) at 200 ppm [4]

CC(c1ncnn1-c1ccc(F)cn1)N(C)c1ncnc2c(C(F)(F)F)cc(C(F)(F)F)cc12 (stereo not shown) [P.189, N-[1-[2-(5-fluoro-2-pyridyl)-1,2,4-triazol-3-yl]ethyl]-N-methyl-6,8-bis(trifluoromethyl)quina-zolin-4-amine]
≥ 80%: percent control (mortality or growth inhibition) at 200 ppm [1] | percent control (mortality, anti-feedant effect or growth inhibition) at 200 ppm [2] | percent control (mortality or growth inhibition) at 200 ppm [3] | percent control (mortality, anti-feedant effect or growth inhibition) at 200 ppm [4]

CC(c1ncnn1-c1ccc(OC(F)F)cn1)N(C)c1ncnc2c(C(F)(F)F)cc(C(F)(F)F)cc12 (stereo not shown) [P.192]
≥ 80%: percent control (mortality or growth inhibition) at 200 ppm [1] | percent control (mortality, anti-feedant effect or growth inhibition) at 200 ppm [2] | percent control (mortality or growth inhibition) at 200 ppm [3] | percent control (mortality, anti-feedant effect or growth inhibition) at 200 ppm [4]

CC(c1nc(Br)nn1-c1ncccn1)N(C)c1ncnc2c(C(F)(F)F)cc(Cl)cc12 (stereo not shown) [P.205, N-[1-(5-bromo-2-pyrimidin-2-yl-1,2,4-triazol-3-yl)ethyl]-6-chloro-N-methyl-8-(trifluoromethyl)quinazolin-4-amine]
≥ 80%: percent control (mortality or growth inhibition) at 200 ppm [1] | percent control (mortality, anti-feedant effect or growth inhibition) at 200 ppm [2] | percent control (mortality or growth inhibition) at 200 ppm [3] | percent control (mortality, anti-feedant effect or growth inhibition) at 200 ppm [4]

C[C@@H](c1ncnn1-c1ccc(C#N)cn1)N(C)c1ccnc2c(C(F)(F)F)cc(Br)cc12 [P.206, 6-[5-[(1S)-1-[[6-bromo-8-(trifluoromethyl)-4-quinolyl]-methyl-amino]ethyl]-1,2,4-triazol-1-yl]pyridine-3-carbonitrile]
≥ 80%: percent control (mortality or growth inhibition) at 200 ppm [1] | percent control (mortality, anti-feedant effect or growth inhibition) at 200 ppm [2] | percent control (mortality or growth inhibition) at 200 ppm [3] | percent control (mortality, anti-feedant effect or growth inhibition) at 200 ppm [4]

CC(c1nc(Br)nn1-c1ncccn1)N(C)c1ncnc2c(Cl)cc(C(F)(F)F)cc12 (stereo not shown) [P.207, N-[1-(5-bromo-2-pyrimidin-2-yl-1,2,4-triazol-3-yl)ethyl]-8-chloro-N-methyl-6-(trifluoromethyl)quinazolin-4-amine]
≥ 80%: percent control (mortality or growth inhibition) at 200 ppm [1] | percent control (mortality, anti-feedant effect or growth inhibition) at 200 ppm [2] | percent control (mortality or growth inhibition) at 200 ppm [3] | percent control (mortality, anti-feedant effect or growth inhibition) at 200 ppm [4]

C[C@H](Nc1ccnc2c(Br)cc(C(F)(F)F)cc12)c1ncnn1-c1ncccn1 [P.209, 8-bromo-N-[(1S)-1-(2-pyrimidin-2-yl-1,2,4-triazol-3-yl)ethyl]-6-(trifluoromethyl)quinolin-4-amine]
≥ 80%: percent control (mortality or growth inhibition) at 200 ppm [1] | percent control (mortality, anti-feedant effect or growth inhibition) at 200 ppm [2] | percent control (mortality or growth inhibition) at 200 ppm [3] | percent control (mortality, anti-feedant effect or growth inhibition) at 200 ppm [4]

CC(c1ncnn1-c1ccc(C#N)cn1)N(C)c1nccc2c(C(F)(F)F)cc(C(F)(F)F)cc12 (stereo not shown) [P.211, 6-[5-[1-[[5,7-bis(trifluoromethyl)-1-isoquinolyl]-methyl-amino]ethyl]-1,2,4-triazol-1-yl]pyridine-3 carbonitrile]
≥ 80%: percent control (mortality or growth inhibition) at 200 ppm [1] | percent control (mortality, anti-feedant effect or growth inhibition) at 200 ppm [2] | percent control (mortality or growth inhibition) at 200 ppm [3] | percent control (mortality, anti-feedant effect or growth inhibition) at 200 ppm [4]

C[C@@H](c1ncnn1-c1ccc(C#N)cn1)N(C)c1ccnc2c(C(F)(F)F)cc(C(F)(F)F)cc12 [P.214, 6-[5-[(1S)-1-[[6,8-bis(trifluoromethyl)-4-quinolyl]-methyl-amino]ethyl]-1,2,4-triazol-1-yl]pyridine-3-carbonitrile]
≥ 80%: percent control (mortality or growth inhibition) at 200 ppm [1] | percent control (mortality, anti-feedant effect or growth inhibition) at 200 ppm [2] | percent control (mortality or growth inhibition) at 200 ppm [3] | percent control (mortality, anti-feedant effect or growth inhibition) at 200 ppm [4]

C[C@H](Nc1ncnc2c(C(F)(F)F)cc(I)cc12)c1ncnn1-c1ccc(C#N)cn1 [P.218, 6-[5-[(1S)-1-[[6-iodo-8-(trifluoromethyl)quinazolin-4-yl]amino]ethyl]-1,2,4-triazol-1-yl]pyridine-3-carbonitirle]
≥ 80%: percent control (mortality or growth inhibition) at 200 ppm [1] | percent control (mortality, anti-feedant effect or growth inhibition) at 200 ppm [2] | percent control (mortality or growth inhibition) at 200 ppm [3] | percent control (mortality, anti-feedant effect or growth inhibition) at 200 ppm [4]

CC(c1ncnn1-c1ccc(C#N)cn1)N(C)c1c(C#N)cnc2c(C(F)(F)F)cc(C(F)(F)F)cc12 (stereo not shown) [P.224, 4-[1-[2-(5-cyano-2-pyridyl)-1,2,4-tirazol-3-yl]ethyl-methyl-amino]-6,8-bis(trifluoromethy)quino-line-3-carbonitrile]
≥ 80%: percent control (mortality or growth inhibition) at 200 ppm [1] | percent control (mortality, anti-feedant effect or growth inhibition) at 200 ppm [2] | percent control (mortality or growth inhibition) at 200 ppm [3] | percent control (mortality, anti-feedant effect or growth inhibition) at 200 ppm [4]
